Measured values published in patent US5061794A, “Cephalosporin derivatives, and antibacterial agents” (priority 1986, dated 1991).
Like-named read-outs stand apart in the source and are kept apart here.

Tests used:
[1] = system: E. coli CSH(RE45); experiment: microbe, parasite or virus in culture; format: cell-based; conditions: Escherichia coli, 16 h, read-out: Minimum Inhibitory Concentration (MIC), *E. coli CSH(RE45), lactamase-producing strain; 10^6 CFU/ml
Procedure, shortened: (§1)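 MICs (μg/ml) were read after 16 hours at 37°C. Test strains, grown overnight in Mueller Hinton broth, were spotted at 10^6 CFU/ml onto Mueller Hinton agar plates containing the compounds at a range of concentrations.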

[2] = system: E. coli CSH2 (RK1); experiment: microbe, parasite or virus in culture; format: cell-based; conditions: Escherichia coli, 16 h, read-out: Minimum Inhibitory Concentration (MIC), *E. coli CSH2 (RK1), lactamase-producing strain; 10^6 CFU/ml
Procedure, shortened: as §1

[3] = system: A. calcoaceticus No. 4; experiment: in vitro antibacterial activity, agar plate dilution method (MIC); format: cell-based, Acinetobacter calcoaceticus; conditions: Acinetobacter calcoaceticus, NO.4, 16 h, 10^6 CFU/ml
Procedure, shortened: as §1

[4] = system: Ps. cepacia 23; experiment: as above; format: cell-based, Pseudomonas cepacia; conditions: Burkholderia cepacia, 16 h; Ps. cepacia 23; 10^6 CFU/ml; read-out: Minimum Inhibitory Concentration (MIC)
Procedure, shortened: as §1

[5] = system: P. vulgaris HX-19; experiment: as above; format: cell-based; conditions: Proteus vulgaris, HX19, 16 h, P. vulgaris HX-19; 10^6 CFU/ml; read-out: Minimum Inhibitory Concentration (MIC)
Procedure, shortened: as §1

[6] = system: S. marcescens No. 16-2; experiment: as above; format: cell-based; conditions: Serratia marcescens, NO.162, 16 h, read-out: Minimum Inhibitory Concentration (MIC), *S. marcescens No. 16-2, lactamase-producing strain; 10^6 CFU/ml
Procedure, shortened: as §1

[7] = system: E. coli GN5482; experiment: as above; format: cell-based; conditions: Escherichia coli, GN5482, 16 h, read-out: Minimum Inhibitory Concentration (MIC)
Procedure, shortened: as §1

[8] = system: E. coli NIHJ JC2; experiment: as above; format: cell-based; conditions: Escherichia coli, NIHJJC2, 16 h, read-out: Minimum Inhibitory Concentration (MIC), E. coli NIHJ JC2, 10^6 CFU/ml, 37° C.
Procedure, shortened: as §1

[9] = system: E. cloacae 963; experiment: as above; format: cell-based; conditions: 10^6 CFU/ml
Procedure, shortened: as §1

[10] = system: K. pneumoniae PCI-602; experiment: as above; format: cell-based; conditions: Klebsiella pneumoniae, PCI602, 16 h, read-out: Minimum Inhibitory Concentration (MIC), K. pneumoniae PCI-602; 10^6 CFU/ml
Procedure, shortened: as §1

[11] = system: S. marcescens IAM 1184; experiment: as above; format: cell-based; conditions: Serratia marcescens, IAM1184, 16 h, read-out: Minimum Inhibitory Concentration (MIC)
Procedure, shortened: as §1

[12] = system: E. cloacae Nek 39; experiment: as above; format: cell-based; conditions: Enterobacter cloacae, NEK39, 16 h, read-out: Minimum Inhibitory Concentration (MIC), *E. cloacae Nek 39, lactamase-producing strain; 10^6 CFU/ml
Procedure, shortened: as §1

[13] = system: P. vulgaris No. 33; experiment: as above; format: cell-based; conditions: Proteus vulgaris, NO.33, 16 h, read-out: Minimum Inhibitory Concentration (MIC), *P. vulgaris No. 33, lactamase-producing strain; 10^6 CFU/ml
Procedure, shortened: as §1

[14] = system: M. morganii GN5407; experiment: as above; format: cell-based; conditions: Morganella morganii, GN5407, 16 h, read-out: Minimum Inhibitory Concentration (MIC), *M. morganii GN5407, lactamase-producing strain; 10^6 CFU/ml
Procedure, shortened: as §1

[15] = system: S. aureus 209P NIHJ-JC1; experiment: as above; format: cell-based; conditions: Staphylococcus aureus, 16 h
Procedure, shortened: as §1

[16] = system: K. oxytoca GN10650; experiment: as above; format: cell-based; conditions: Klebsiella oxytoca, GN10650, 16 h, read-out: Minimum Inhibitory Concentration (MIC), *K. oxytoca GN10650, lactamase-producing strain; 10^6 CFU/ml
Procedure, shortened: as §1

[17] = system: K. pneumoniae No. 42; experiment: as above; format: cell-based; conditions: Klebsiella pneumoniae, NO.42, 16 h, read-out: Minimum Inhibitory Concentration (MIC), *K. pneumoniae No. 42, lactamase-producing strain; 10^6 CFU/ml
Procedure, shortened: as §1

[18] = system: Ps. aeruginosa IF03445; experiment: as above; format: cell-based, Pseudomonas aeruginosa; conditions: Pseudomonas aeruginosa, 10^6 CFU/ml
Procedure, shortened: as §1

[19] = system: Ps. aeruginosa AKR17; experiment: as above; format: cell-based, Pseudomonas aeruginosa; conditions: Pseudomonas aeruginosa, read-out: Minimum Inhibitory Concentration (MIC)
Procedure, shortened: as §1

[20] = system: Ps. aeruginosa AK 109; experiment: as above; format: cell-based, Pseudomonas aeruginosa; conditions: Pseudomonas aeruginosa, AK109, 16 h, read-out: Minimum Inhibitory Concentration (MIC)
Procedure, shortened: as §1

[21] = read-out: Minimum Inhibitory Concentration (MIC), A. calcoaceticus No. 4
[22] = Enterobacter cloacae, 16 h, E. cloacae 963, read-out: Minimum Inhibitory Concentration (MIC)
[23] = S. marcescens IAM 1184, 10^6 CFU/ml
[24] = read-out: Minimum Inhibitory Concentration (MIC), S. aureus 209P NIHJ-JC1, 10^6 CFU/ml, 37° C., 16 hours
[25] = IF03445, 16 h, read-out: Minimum Inhibitory Concentration (MIC), Ps. aeruginosa IF03445
[26] = 16 h, Ps. aeruginosa AKR17, 10^6 CFU/ml
[27] = read-out: Minimum Inhibitory Concentration (MIC)
[28] = Enterobacter cloacae, 963, 16 h, read-out: Minimum Inhibitory Concentration (MIC), E. cloacae 963
[29] = 16 h, Ps. aeruginosa IF03445, read-out: Minimum Inhibitory Concentration (MIC)
[30] = Ps. aeruginosa AK 109, 10^6 CFU/ml

Structure (SMILES)	MIC [1] [µg/mL]	MIC [2] [µg/mL]	MIC [3, 21] [µg/mL]	MIC [4] [µg/mL]	MIC [5] [µg/mL]	MIC [6] [µg/mL]	MIC [7] [µg/mL]	MIC [8] [µg/mL]	MIC [9, 22] [µg/mL]	MIC [10] [µg/mL]	MIC [11, 23] [µg/mL]	MIC [12] [µg/mL]	MIC [13] [µg/mL]	MIC [14] [µg/mL]	MIC [15, 24] [µg/mL]	MIC [16] [µg/mL]	MIC [17] [µg/mL]	MIC [18, 25] [µg/mL]	MIC [19, 26] [µg/mL]	MIC [20, 30] [µg/mL]	other results
CO/N=C(\C(=O)N[C@@H]1C(=O)N2C(C(=O)O)=C(CSc3nnc(-c4ccc(O)c(O)c4)o3)CS[C@H]12)c1csc(N)n1 [Ex. 1, sodium 7β-[2-(2-aminothiazol-4-yl)-2-methoxyiminoacetamido]-3-[5-(3, 4dihydroxyphenyl)-1,3,4-oxadiazol-2-yl]thiomethyl-3-cephem-4-carboxylate]	0.78	< 0.006	0.1	0.1	< 0.006	0.78	0.39	0.05	< 0.006	< 0.006	< 0.006	0.05	0.0125	0.0125	1.56	0.39	0.025	0.78	> 100	–	MIC [20]: 0.39 µg/mL
CO/N=C(\C(=O)N[C@@H]1C(=O)N2C(C(=O)O)=C(CSc3nnc(-c4ccc(OC(C)=O)c(OC(C)=O)c4)o3)CS[C@H]12)c1csc(N)n1 [Ex. 4, sodium 3-[5-(3,4-diacetoxyphenyl)-1,3,4-oxadiazol-2-yl]thiomethyl-7β-[2-(2-thiazol-4-yl)-2-methoxyiminoacetamido]-3-cephem-4carboxylate]	0.78	< 0.006	0.1	0.1	< 0.006	1.56	0.39	0.05	< 0.006	< 0.006	< 0.006	0.05	0.0125	0.0125	–	0.39	0.025	0.78	> 100	–	MIC [15, 27]: 3.12 µg/mL; MIC [20]: 0.39 µg/mL
CCO/N=C(\C(=O)N[C@@H]1C(=O)N2C(C(=O)O)=C(CSc3nnc(-c4ccc(O)c(O)c4)o3)CS[C@H]12)c1csc(N)n1 [Ex. 5, sodium 7β-[2-(2-aminothiazol-4-yl)-2-ethoxyiminoacetamido]-3-[5-(3,4-dihydroxyphenyl)-1,3,4-oxadiazol-2-yl]thiomethyl-3-cephem-4-carboxylate]	0.0125	0.0125	0.1	< 0.006	< 0.006	0.78	0.39	0.05	–	< 0.006	–	0.1	0.025	0.025	0.78	0.78	0.05	0.39	> 100	–	MIC [9, 28]: 0.0125 µg/mL; MIC [11]: 0.0125 µg/mL; MIC [20]: 0.39 µg/mL
CCO/N=C(\C(=O)N[C@@H]1C(=O)N2C(C(=O)O)=C(CSc3nnc(-c4ccc(OC(C)=O)c(OC(C)=O)c4)o3)CS[C@H]12)c1csc(N)n1 [Ex. 6, sodium 3-[5-(3,4-diacetoxyphenyl)-1,3,4-oxadiazol-2-yl]thiomethyl-78-[2-(2-aminothiazol-4-yl)-2-ethoxyiminoacetamido]-3-cephem-4-carboxylate]	0.78	0.0125	0.1	0.05	< 0.006	0.78	0.39	0.05	< 0.006	< 0.006	< 0.006	0.05	0.0125	0.0125	1.56	0.39	0.025	–	> 100	0.1	MIC [18, 29]: 0.2 µg/mL
CC(C)O/N=C(\C(=O)N[C@@H]1C(=O)N2C(C(=O)O)=C(CSc3nnc(-c4ccc(O)c(O)c4)o3)CS[C@H]12)c1csc(N)n1 [Ex. 7, sodium 78-[2-(2-aminothiazol-4-yl)-2-isopropoxyiminoacetamido]-3-[5-(3,4-dihydroxyphenyl)-1,3,4-oxadiazol-2-yl]thiomethyl-3-cephem-4-carboxylate]	1.56	< 0.006	0.1	< 0.006	< 0.006	1.56	0.39	0.1	0.0125	< 0.006	0.025	0.05	0.0125	0.0125	1.56	0.1	0.025	0.39	50	0.2	–
C=CCO/N=C(\C(=O)N[C@@H]1C(=O)N2C(C(=O)O)=C(CSc3nnc(-c4ccc(O)c(O)c4)o3)CS[C@H]12)c1csc(N)n1 [Ex. 8, sodium 7β-[2-allyloxyimino-2-(2-aminothiazol-4-yl)acetamido]-3-[5-(3,4-dihydroxyphenyl)-1,3,4-oxadiazol-2-yl]thiomethyl-3-cephem-4carboxylate]	0.78	< 0.006	0.1	0.025	< 0.006	1.56	0.39	0.1	< 0.006	< 0.006	0.0125	0.05	0.0125	0.0125	0.78	3.12	0.05	–	100	0.2	MIC [18, 29]: 0.2 µg/mL
Nc1nc(/C(=N/OC2(C(=O)O)CC2)C(=O)N[C@@H]2C(=O)N3C(C(=O)O)=C(CSc4nnc(-c5ccc(O)c(O)c5)o4)CS[C@H]23)cs1 [Ex. 12, disodium 7β-[2-(2-aminothiazol-4-yl)-2-(1-carboxylate-1-cyclopropoxyimino)acetamido]-3-[5-(3,4-dihydroxvphenyl)-1,3,4-oxadiazol-2-vl]thiomethyl-3-cephem-4-carboxylate]	< 0.006	< 0.006	–	< 0.006	< 0.006	1.56	0.2	0.05	–	< 0.006	0.0125	0.025	0.025	0.025	–	0.025	0.025	0.39	–	0.2	MIC ([3]; A. calcoaceticus No. 4, read-out: Minimum Inhibitory Concentration (MIC)): 0.05 µg/mL; MIC [9, 28]: 0.05 µg/mL; MIC [15, 27]: 12.5 µg/mL; MIC ([19]; AKR17, 16 h): 3.12 µg/mL
